In US20050175545A1, “Formulation for inhalation comprising a glucocorticoid and a beta 2-adrenoreceptor agonist” (priority 2002, published 2005):

Legend:
[1] = Pharmacokinetics after intra-tracheal dry powder dosing in the pig; format: in vivo; details: intra-tracheal 1 mg; lower limits of quantitation 10 (Example 1) and 20 pg/mL (fluticasone propionate)
Experimental: Serial blood samples were taken for up to 8h following dosing.

lung eosinophilia = test: ovalbumin sensitised Brown Norway rat eosinophilia model; format: in vivo; details: intra-tracheal suspension in saline 30 min prior to ovalbumin challenge
Experimental: Pharmacological activity in vivo was assessed in an ovalbumin sensitised Brown Norway rat eosinophilia model. This model is designed to mimic allergen induced lung eosinophilia, a major component of lung inflammation in asthma.

rat hepatocytes = test: In vitro metabolism in rat hepatocytes; format: in vitro ADME; details: 17-β carboxylic acid (X) only significant metabolite
human hepatocytes = test: In vitro metabolism in human hepatocytes; format: in vitro ADME; details: 17-β carboxylic acid (X) only significant metabolite
[2] = Pharmacokinetics after intravenous and oral dosing in rats; details: in vivo data in the rat
[3] = Pharmacokinetics after intravenous administration in the anaesthetised pig; format: in vivo; details: for clearance (comparison, in words): intravenous 0.1 mg/kg; for pharmacokinetic parameters (comparison, in words): intravenous mixture of the two compounds at 0.1 mg/kg
Text: The clearance of these two glucocorticoids is similar is this experimental pig model.

NFκB = NFκB firefly luciferase reporter stimulated with TNFα, transrepression; format: cell-based; details: Homo sapiens, A549, read-out: Transrepression (NFκB) ED50 (nM)
Text: The glucocorticoid receptor (GR) can function in at least two distinct mechanisms, by upregulating gene expression through the direct binding of GR to specific sequences in gene promoters, and by downregulating gene expression that is being driven by other transcription factors (such as NFκB or AP-1) through their direct interaction with GR.
The first cell line contains the firefly luciferase reporter gene under the control of a synthetic promoter that specifically responds to activation of the transcription factor NFκB when stimulated with TNFα. The second cell line contains the renilla luciferase reporter gene under the control of a synthetic promotor that comprises 3 copies of the consensus glucocorticoid response element, and which responds to direct stimulation by glucocorticoids. Simultaneous measurement of transactivation and transrepression was conducted by mixing the two cell lines in a 1:1 ratio in 96 well plate (40,000 cells per well) and growing overnight at 37° C. Test compounds were dissolved in DMSO, and added to the cells at a final DMSO concentration of 0.7%. After incubation for 1 h 0.5 ng/ml TNFα (R&D Systems) was added and after a further 15 hours at 37° C., the levels of firefly and renilla luciferase were measured using the Packard Firelite kit following the manufacturers' directions. Dose response curves were constructed from which EC50 values were determined.

## C[C@@H]1CC2C3C[C@H](F)C4=CC(=O)C=C[C@]4(C)[C@@]3(F)[C@@H](O)C[C@]2(C)[C@@]1(OC(=O)c1ccco1)C(=O)SCF (stereo partly drawn) [Example 1, 6α,9α-Difluoro-17α-[(2-furanylcarbonyl)oxy]-11β-hydroxy-16α-methyl-3-oxo-androsta-1,4-diene-17β-carbothioic acid S-fluoromethyl ester]
[1]
  time after dosing up to which quantifiable in plasma: up to 2 hours
Lung eosinophilia
  inhibition of lung eosinophilia (dose relation, in words): dose dependant inhibition
Rat hepatocytes
  manner of metabolism: metabolised in an identical manner to fluticasone propionate
Human hepatocytes
  manner of metabolism: metabolised in an identical manner to fluticasone propionate
[2]
  plasma clearance (in words): approaching hepatic blood flow
[3]
  clearance (comparison, in words): similar
  pharmacokinetic parameters (comparison, in words): the same

## CC1CC2C3CC(F)C4=CC(=O)C=CC4(C)C3(F)C(O)CC2(C)C1(OC(=O)c1ccsc1)C(=O)SCF (stereo not drawn) [Example 4, 6α,9α-Difluoro-11β-hydroxy-16α-methyl-3-oxo-17α-[(3-thienylcarbonyl)oxy]-androsta-1,4-diene-17β-carbothioic acid S-fluoromethyl ester]
[2]
  plasma clearance (in words): approaching hepatic blood flow

## Cc1ccoc1C(=O)OC1(C(=O)SCF)C(C)CC2C3CC(F)C4=CC(=O)C=CC4(C)C3(F)C(O)CC21C (stereo not drawn) [Example 19, 6α,9α-Difluoro-11β-hydroxy-16α-methyl-17α-[(3-methylfuran-2-carbonyl)oxy]-3-oxo-androsta-1,4-diene-17β-carbothioic acid S-fluoromethyl ester]
[2]
  plasma clearance (in words): approaching hepatic blood flow

## Cc1cc(C(=O)OC2(C(=O)SCF)C(C)CC3C4CC(F)C5=CC(=O)C=CC5(C)C4(F)C(O)CC32C)no1 (stereo not drawn) [Example 24, 6α,9α-Difluoro-11β-hydroxy-16α-methyl-17α-[(5-methylisoxazole-3-carbonyl)oxy]-3-oxo-androsta-1,4-diene-17β-carbothioic acid S-fluoromethyl ester]
[2]
  plasma clearance (in words): approaching hepatic blood flow

## Cc1cc(C(=O)OC2(C(=O)SCF)C(C)CC3C4CC(F)C5=CC(=O)C=CC5(C)C4(F)C(O)CC32C)on1 (stereo not drawn) [Example 25, 6α,9α-Difluoro-11β-hydroxy-16α-methyl-17α-[(3-methylisoxazole-5-carbonyl)oxy]-3-oxo-androsta-1,4-diene-17β-carbothioic acid S-fluoromethyl ester]
[2]
  plasma clearance (in words): approaching hepatic blood flow

## CC1CC2C3CC(F)C4=CC(=O)C=CC4(C)C3(F)C(O)CC2(C)C1(OC(=O)c1ccon1)C(=O)SCF (stereo not drawn) [Example 28, 6α,9α-Difluoro-11β-hydroxy-17α-[(isoxazole-3-carbonyl)oxy]-16α-methyl-3-oxo-androsta-1,4-diene-17β-carbothloic acid S-fluoromethyl ester]
[2]
  plasma clearance (in words): approaching hepatic blood flow

## CCC(=O)O[C@]1(C(=O)SCF)[C@H](C)C[C@H]2[C@@H]3C[C@H](F)C4=CC(=O)C=C[C@]4(C)[C@@]3(F)[C@@H](O)C[C@@]21C [Fluticasone propionate, 6α,9α-Difluoro-17α-(1-oxopropoxy)-11β-hydroxy-16α-methyl-3-oxo-androsta-1,4-diene-17β-carbothioic acid S-fluoromethyl ester, reference compound]
[1]
  time after dosing up to which quantifiable in plasma: up to 8 hours
[3]
  clearance (comparison, in words): similar
  pharmacokinetic parameters (comparison, in words): the same

## C[C@@H]1C[C@H]2[C@@H]3C[C@H](F)C4=CC(=O)C=C[C@]4(C)[C@@]3(F)[C@@H](O)C[C@]2(C)[C@@]1(OC(=O)c1ccco1)C(=O)O [Metabolite (X)]
NFκB
  EC50: > 1000 nM
